Here are results for one compound from patent publication US9744186B2 (priority 2012, dated 2017).

A word on the IC50: it is the concentration that gives 50% inhibition. For orientation: solubility means the concentration that dissolves in the medium under given conditions. Lower therefore signals little dissolved substance.

The subject of data set [1] is HCV luciferase replicon. Kind of data set: Isobologram analysis of synergism with other anti-viral compounds. In kind it is cell-based, hepatitis C virus (HCV). On the procedure:
Isobologram analysis was carried to assess the potential synergistic interaction of representative disclosed compounds with representative antiviral compounds. The isobolgram analysis was conducted as previously described by Chou and Talalay (see Chou T. C. and Talalay P. “Analysis of combined drug effects: a new look at a very old problem.” Trends Pharmacol Sci 1983; 4:450-4; and Chou T. C. and Talalay P. “Quantitative analysis of dose-effect relationships: the combined effects of multiple drugs or enzyme inhibitors.” Adv Enzyme Regul 1984; 22:27-55). The definitions of synergism are those described by Chou (see Chou, T. C. (2006) Theoretical basis, experimental design, and computerized simulation of synergism and antagonism in drug combination studies. Pharmacol Rev. 58(3):621-81).
Data for the isobologram analysis are shown in FIGS. 12-15, and shown in each figure are the test compound concentrations and corresponding combination index.

Data set [2] can be described thus: TC50 MTS assay: PK9 cells. The data set is classed as cell-based. The note with it: human, 48 h drug treatment. As to the method:
(§1) Plating Cells: The Huh7, HEPG2, HEK293, MCF-7, PK9, RPK9, or BxPC3 cells were passaged when they were about 70% confluent. The cells were counted using a hemocytometer, and then diluted cells to 0.5×10^5 cells per mL in DMEM+10% FBS. 100 µL of the cells (5,000 cells) were plated per well in a clear 96-well plate. The cells were allowed to attach for 24 hours at 37° C.
(§2) Treating the cells: Pre-warm the DMEM media without phenol red+2% FBS media to 37° C. […] This will bring the final DMSO concentration to 0.5%. Use these 0.5 mM dilutions to further serially the drugs in DMEM without phenol red+2% FBS+0.5% DMSO. This will keep the concentration of DMSO in each condition identical. Remove the 96-well plate from the 37° C. incubator. Replace the media on the plate with the dilutions of the drugs. Stagger these treatments by 1 h and write the treatment time on each set of plates. Return to 37° C. for 48 h or 96 h as indicated.
(§3) MTS Assay: The reagents from CellTiter 96 kit (Promega Corporation, Madison, Wis.) were thawed at room temperature in the dark for 1 h. The 96-well plate was removed from the 37° C. incubator at 48 h after drug treatment. […] The absorbance of each well at 490 nm and 650 nm was determined using the Flexstation 3 microplate reader in endpoint mode every hour for 3 h. The solutions in the wells were mixed prior to each reading. […]
(In general: Tetrazolium assays rely on reduction of a dye to a coloured formazan, in cell work by metabolically active cells.)

Data set [3] relates to HCV luciferase replicon. In words: Reversal of anti-HCV activity by exogenous nucleosides. The note with it: drug 1000, 100 or 25 nM; 50 μM cytidine or 2′-deoxycitidine; 48 h. In kind it is cell-based, hepatitis C virus (HCV). As to the method:
After 48 hours, the cells were lysed, and the total luciferase activity was determined. […] Where indicated, either 50 μM cytidine (C) or 50 μM 2′-deoxycitidine (dC) was also included.
The cells were plated, incubated with drug, and luciferase activity assayed essentially as described herein above. The incubation with drug was for 48 h.

In data set [4] the test system is HCV luciferase replicon. Kind of data set: HCV luciferase replicon IC50 assay in Huh7 cells. Particulars: Hepatitis C virus. As to the method: Plating Cells: The Luciferase replicon cell line was passaged when it was at about 70% confluency. The cells were counted by using a hemocytometer and diluted to 1×10^5 cells per mL in DMEM+10% FBS+[…] G415. The cells were plated as follows: 100 μL of the cells (10,000 cells) per well in a white-walled 96-well plate. The cells were allowed to attach for 24 hours at 37° C.
(§4) Treating the cells: Media (DMEM+2% FBS) was pre-warmed to 37° C. […] The 96-well plate was removed from the 37° C. incubator, and the media replaced on the plate with the serial dilutions of the test drug. The plate was then returned to 37° C. for 48 h.
Luciferase Assay: The Bright-Glo reagent (Promega Corporation, Madison, Wis.) was removed from the −80° C. freezer and allowed to thaw it at 4° C. in the dark. The amount of reagent necessary for the experiment (3.65 mL) was removed, and the remaining reagent was returned to −80° C. The Glo Lysis Buffer and the Bright Glow reagent were allowed to warm to room temperature for 30 min in the dark. The 96 well plate was removed from the incubator and the cells to allowed cool to room temperature for 30 min. The media was removed from the cells, and each well was gently washed in 100 μL of phosphate buffered saline (PBS). The PBS was removed and then 50 μL of the Glo Lysis Buffer was added to each well, followed by gently rocking the plate for 15 min at room temperature in the dark to ensure complete cell lysis. To each well of the 96-well plate was added 50 μL of the Bright Glo reagent and it was mixed well with the lysate. The plate was inserted into a GloMax 96 plate reader and allowed to sit for 5 min in the dark for the luciferase reaction to reach a steady state. The luminescence on the plate was read by using the pre-installed “Bright Glo” Promega program (Synergy Software) and the data were collected and saved. The data were fit to a 4 parameter logistic curve using Kaleidagraph using the following equation: 100/(1+(x/m3)^m4).
The data in Table 1 were determined for cells exposed to drug for 48 h. The IC50 is the concentration of each compound necessary to inhibit the replication of the HCV luciferase replicon to 50%.
That is, the cells were exposed to drug for 2 h at 37° C., followed by 46 h at 37° C. or incubated in the presence of drug for 48 h at 37° C.
(In antiviral work, replicon cells carry a viral genome segment that copies itself.)

Data set [5] can be described thus: TC50 MTS assay with human cancer cell lines: Huh7. Particulars: human, Huh7 cells; 96 h drug treatment. In kind it is cell-based. On the procedure:
as §1, §2
(§5) MTS Assay: The reagents from CellTiter 96 kit (Promega Corporation, Madison, Wis.) were thawed at room temperature in the dark for 1 h. The 96-well plate was removed from the 37° C. incubator at 48 h after drug treatment. 20 μL of the combined MTS/PMS reagent to each well of the plate, mixed, and the plate returned to 37° C. The absorbance of each well at 490 nm and 650 nm was determined using the Flexstation 3 microplate reader in endpoint mode every hour for 3 h. The solutions in the wells were mixed prior to each reading. Fit Data to the Emax model: y=(Emax*x)/(TC50+x), where Emax is the maximum inhibition and TC50 is the inhibitory dose 50%. Alternatively, fit the data to the Emax sigmoidal model: y=(Emax*x^slope)/(TC50^slope+x^slope), where slope is the Hill Slope.
(§6) Each TC50 was the average value of three measurements as described herein. […] The RPK9 cells are deficient in deoxycytidine kinase (“dCK”) activity, an enzyme required for the initial phosphorylation of dFdC to dFdCMP (see FIG. 2).

The next data set relates to hENT1. In words: TC50 MTS assay with human cancer cell lines: Huh7. The data set is classed as cell-based. Particulars: human, Huh7 cells; 48 h drug treatment; 10 μM S-(4-nitrobenzyl)-6-thioinosine (hENT1 inhibitor) added; read-out: TC50 (μM) in Huh7 cells NBTI. On the procedure:
as §1, §2, §5, §6

Data set [6] can be described thus: TC50 MTS assay: RPK9 cells (deficient in deoxycytidine kinase). In kind it is cell-based. Particulars: human, 48 h drug treatment, dCK-deficient cells. On the procedure:
as §1, §2, §3

A short description of data set [7]: TC50 MTS assay with human cancer cell lines: MCF-7. The data set is classed as cell-based. The note with it: MCF-7 cells, 96 h drug treatment. As to the method:
as §1, §2, §5, §6

The nature of data set [8]: Compound solubility in media. The data set is classed as physicochemical. The note with it: DMEM+2% FBS cell culture media, 37 °C, plasma or biological fluid, kinetic from dmso stock; DMEM+2% FBS media. On the procedure:
as §4

The nature of data set [9]: TC50 MTS assay with human cancer cell lines: BxPC3. The data set is classed as cell-based. Particulars: BxPC3 cells, 96 h drug treatment. As to the method:
as §1, §2, §3

Data set [10] in a line: TC50 MTS assay with human cancer cell lines: HEPG2. The data set is classed as cell-based. Particulars: HEPG2 cells, 96 h drug treatment. On the procedure: as §1, §2, §5, §6
Data set [11] is described as follows: TC50 MTS assay with human cancer cell lines: HEK293. In kind it is cell-based. The note with it: HEK293 cells, 96 h drug treatment. As to the method:
as §1, §2, §5, §6

Regarding `Nc1ccn([C@@H]2O[C@H](CO)[C@@H](O)C2(F)F)c(=O)n1` [gemcitabine, 4-amino-1-((2R,4R,5R)-3,3-difluoro-4-hydroxy-5-(hydroxymethyl)tetrahydrofuran-2-yl)pyrimidin-2(1H)-one, reference compound], in the data set with HCV luciferase replicon [1] (Compound 2 = PSI-6130), the “Interaction Type with PSI-6130” value is “synergism”. For the same compound, the “Interaction Type with PSI-7977” value in the data set on HCV luciferase replicon [1] (Compound 2 = PSI-7977) is given as “slight synergism”. The CC50 at 48 h in data set [2] is 0.095 ± 0.035 µM; in the data set with hENT1, above 500 µM; in data set [6], above 500 µM. In addition, in the data set on HCV luciferase replicon [3], the “reversal of the inhibition of the HCV luciferase replicon by deoxycytidine and cytidine” value was “reversal”. Also, the IC50 in the data set on HCV luciferase replicon [4] (Huh-7, 48 h, cells incubated with drug continuously for 48 h (Table 5)) was 58.4 ± 6.1 nM; with HCV luciferase replicon [4] (Huh-7, cells incubated with drug for 2 h, followed by 46 h without drug) it was 170 ± 33 nM. Also, the CC50 at 96 h in data set [5] came out at 3410 ± 1360 nM; in [7], 67 ± 14 nM; in data set [9] it was 2.9 ± 0.3 nM; in [10], 311 ± 55 nM; in data set [11], 560 ± 130 nM. For the same compound, the solubility in [8] was above 500 µM.
